Measurements: patent publication EP0663826B1, “AMINO ACIDS CONTAINING PARENTERAL FORMULATIONS FOR THE TREATMENT OF HYPOTENSION AND RELATED PATHOLOGIES” (BOARD OF REGENTS THE UNIVERSITY OF TEXAS SYSTEM, priority 1991, dated 1993)

Assays:
[1] = tested on: Actinomycin D-Treated L929 Cells; test: Cytolytic activity of rh-TNF against L929 cells; assay type: cell-based, murine; settings: for TNF Activity: without NMMA 594.5
Procedure: TNF bioactivity was measured by the cytotoxicity towards murine L929 cells, in vitro. […]

[2] = tested on: hypotension associated with the administration of TNF in the dog; test: TNF-induced hypotension in the dog; assay type: in vivo, dogs
Procedure: Recombinant human TNF, specific activity 2 x 10^7 units/mg, was from the Dainippon Chemical Corporation, Tokyo, Japan. TNF was administered at a dose of 10 µg//kg in a volume of 10 ml of phosphate buffered saline containing 17 mg/ml of dog albumin. […] Arginine was obtained from Sigma Chemical Company, St. Louis, Mo.
Four conditioned mongrel dogs, 2 males and 2 females, weighing 28 to 30 kg, were studied. Care of the animals were in accordance with the recommendations of the American Association for Accreditation of Laboratory Animals [DHEW(DHHS) publication no. (NIH) 78-23, revised, 1978]. On the day of the experiment, the dogs were fasted overnight. They were anesthetized with phenobarbital (25 mg/kg). The animals were then intubated orally with a #10 fr. endotracheal tube and ventilated with a Harvard pump ventilator at a rate of 14 breaths per minute and a tidal volume of 15 ml/kg. An arterial line was percutaneously placed in the femoral artery on the day of the experiment.
Mean (electronic) and phasic systemic arterial pressures (SAP) were continuously recorded on a Hewlett-Packard recording system (model 7758B) using strain gauge manometers (Hewlett-Packard model 1290A) which were connected to the arterial line. Heart rate (HR) was determined from an EKG tracing and continuously recorded on the Hewlett-Packard recording system. Oxyhemoglobin saturation (SaO2) was obtained using a pulse oximeter (BIOX 111, Boulder, CO). Continuous time-series records of SAP, HR, and SaO2 were obtained using a Lab Master analog-to-digital convertor (16 channel, 12 bit, 30 kHz; Scientific Solutions, Inc.) sampling at 55 Hz and storing the 6 sec averages on a magnetic disk.

[3] = tested on: ^51Cr-labeled Raji Target cells; test: IL-2 mediated lymphokine activated killer cell activity in vitro; assay type: cell-based, human
[4] = tested on: endotoxin-induced shock in dogs; test: Endotoxin-induced hypotension in dogs (with nitroglycerin and control dogs); assay type: in vivo
Procedure: Animals: Studies were carried out on 12 conditioned mongrel dogs (9 males and 3 females) weighing 22-32 kg (avg=25.3 kg). Animal care was in accordance with the recommendations of the American Association for Accreditation of Laboratory Animal Care, and met all standards prescribed by the Guide for the Care and Use of Laboratory Animals (Guide for the Care and Use of Laboratory Animals (1978) Dept. of Health, Education and Welfare, Washington, D.C. (Publ. No. 78-23). Animal protocols were approved by The University of Texas Animal Welfare committee. The dogs were fasted overnight prior to the day of experimentation. They were anesthetized with sodium pentobarbital (25 mg/kg i.v.). Dogs were then endotracheally intubated and ventilated with a piston-driven respirator (Harvard instruments) using room air at a tidal volume of 15 ml/kg and at a rate of 12 to 14 breaths per minute, adjusted to achieve a normal arterial pH and pCO2 (Instrumentation Laboratories lL1302 pH/Blood Gas Analyzer). Catheters were placed percutaneously into the femoral and pulmonary arteries; In the latter, a flow-directed thermal-dilation catheter was used (Abbott Critical Care Systems).
Physiologic measurements: Mean SAP and heart rate were continuously monitored (Parametron 7048 Monitoring System, Roche) and stored on a magnetic disk using an analog-to-digital converter (Scientific Solutions, Inc.). Cardiac output (CO) was determined as the mean of six measurements by thermal-dilution. Systemic vascular resistance was calculated as (SAP X80)/CO and expressed as dynes-sec/cm^5 (kg/s·cm^4).
Protocol: After the blood pressure and heart rate stabilized, endotoxin (40 µg/kg, in 10 ml of phosphate-buffered saline (PBS), pH 7.4) was infused i.v. over 2 minutes. This dose of endotoxin typically induces severe and often lethal cardiovascular collapse in the dog. Blood pressure was monitored, and when either SAP fell below 60 mm Hg or a stable nadir in systemic arterial pressure (SAP) was maintained for 10 minutes, L-NMA was administered (20 mg/kg in 5 ml of PBS i.v. over 1 min.). In most experiments, L-arginine (400 mg/kg in 20 ml PBS) was administered ten minutes later by i.v. infusion over 2 minutes. In control experiments, dogs without prior exposure to endotoxin received L-NMA alone. To simulate the hypotension observed in dogs receiving endotoxin, one group of dogs received a continuous i.v. infusion of nitroglycerin (2 mg/ml) at a rate adjusted to maintain the SAP at 60-70 mm Hg. Nitroglycerin-treated dogs then received L-NMA (20 mg/kg) and 20 minutes later L-arginine was administered ([…]).
Statistics: Statistical significance was evaluated using Student's test and either a one-tailed or two-tailed analysis as appropriate for comparisons.

## CNC(=N)NCCC[C@H](N)C(=O)O [NMMA, N^ω-methyl-L-arginine]
[1]; [NMMA] 0.125 mM
  TNF Activity: 536.9 Units/ml
[1]; [NMMA] 0.250 mM
  TNF Activity: 538.2 Units/ml
[1]; [NMMA] 0.500 mM
  TNF Activity: 562.4 Units/ml
[1]; [NMMA] 1.0 mM
  TNF Activity: 415.7 Units/ml
[1]; murine L929 cells
  effect on the cytolytic effect of TNF towards tumor cells in vitro: did not alter
[2]; NMMA alone to untreated dogs (n=3)
  duration of NMMA-induced bradycardia: 31 min
[2]; NMMA alone to untreated dogs (n=3), within 2 minutes after infusion
  blood pressure increase: 12 mm Hg
[2]; NMMA in dogs infused with nitroglycerin 28 µg/kg/minute IV
  blood pressure increase: 14 mm
[2]; dog with severe TNF hypotension, 4.4 mg NMMA/kg, Figure 4a
  increase in blood pressure after administration of NMMA: 80 mm Hg
[2]; dogs made hypotensive with TNF
  time to pressor effect of NMMA: ≤ 2 min
[3]; [NMMA] 2.0 mM, same effector cells, without NMMA 66.1 ± 9.5
  % Target Cell Lysis: 75.1 ± 4.1%
[3]; in vitro
  effect on the proliferation phase or the lytic phase of human LAK cells exposed to IL-2: did not alter
[4]; Figure 6 dog, endotoxin
  time SAP maintained greater than 100 mm Hg by second dose of L-NMA: 2 h
  time blood pressure was maintained by the first dose of L-NMA: 48 min
[4]; Figure 6 dog, endotoxin hypotension 47 mm Hg, L-NMA 20 mg/kg, within 10 min
  increase in SAP: 73 mm Hg
[4]; Study 1: Endotoxin-treated dogs (n=4), means ± S.E., same sequence, baseline 2.99 ± 0.32
  Cardiac Output: 2.03 ± 0.32 L/min
[4]; Study 1: Endotoxin-treated dogs (n=4), means ± S.E., same sequence, baseline 119.5 ± 6.0
  Heart Rate: 123.3 ± 4.8 beats/min
[4]; Study 1: Endotoxin-treated dogs (n=4), means ± S.E., same sequence, baseline 3565 ± 454
  Systemic Vascular Resistance: 4462 ± 552 dynes-sec/cm^5
[4]; Study 1: Endotoxin-treated dogs (n=4), means ± S.E., sequence endotoxin 40 µg/kg, L-NMA 20 mg/kg, 10 min later L-arginine 400 mg/kg (measured 2 min later), baseline 128.3 ± 9.4
  Systemic Arterial Pressure: 107.3 ± 9.6 mmHg
[4]; Study 1: Endotoxin-treated dogs (n=4), means ± S.E., value in brackets
  Systemic Vascular Resistance: 4.462 ± 0.552 Kg/s·cm^4
[4]; Study 2: Nitroglycerin-treated dogs (n=3), means ± S.E., baseline 3.14 ± 0.21
  Cardiac Output: 3.85 ± 0.80 L/min
[4]; Study 2: Nitroglycerin-treated dogs (n=3), means ± S.E., baseline 143.7 ± 12.1
  Heart Rate: 191.7 ± 35.0 beats/min
[4]; Study 2: Nitroglycerin-treated dogs (n=3), means ± S.E., baseline 3294 ± 74
  Systemic Vascular Resistance: 1858 ± 399 dynes-sec/cm^5
[4]; Study 2: Nitroglycerin-treated dogs (n=3), means ± S.E., continuous nitroglycerin (2 mg/ml) titrated to SAP 65 mm Hg, then L-NMA 20 mg/kg, then L-arginine, baseline 129.3 ± 10.2
  Systemic Arterial Pressure: 81.8 ± 3.5 mmHg
[4]; Study 2: Nitroglycerin-treated dogs (n=3), value in brackets
  Systemic Vascular Resistance: 1.858 ± 0.399 Kg/s·cm^4
[4]; control dogs not treated with endotoxin, L-NMA alone
  increase in SAP: 24.8 ± 2.7 mm Hg
[4]; control dogs without endotoxin (n=4), means±S.E., L-NMA, baseline 129.0±10.9
  Systemic Arterial Pressure: 153.8±11.4 mm Hg
[4]; control dogs without endotoxin (n=4), means±S.E., baseline 3.54±0.68
  Cardiac Output: 2.12 ± 0.26 L/min
[4]; control dogs without endotoxin (n=4), means±S.E., baseline 121±17.9
  Heart Rate: 82.5±6.1 beats/min
[4]; control dogs without endotoxin (n=4), means±S.E., baseline 3115±347
  Systemic Vascular Resistance: 5967±523 dynes-sec/cm^5
[4]; control dogs without endotoxin (n=4), value in brackets
  Systemic Vascular Resistance: 5.967±0.523 Kg/cm^4·s
[4]; dogs with blood pressure reduced to 65 mm Hg by continuous i.v. nitroglycerin, L-NMA 20mg/kg
  change in blood pressure: 17.1±5.0 mm Hg
[4]; endotoxin-treated dog, additional dose of L-NMA (20 mg/kg) when blood pressure began to decrease
  duration normal blood pressure maintained: at least 2 hours
[4]; endotoxin-treated dog, single i.v. dose of L-NMA (20 mg/kg)
  duration normal blood pressure restored: 30 to 60 min
[4]; endotoxin-treated dogs, L-NMA 20 mg/kg
  HR and CO: unchanged
[4]; endotoxin-treated dogs, L-NMA 20 mg/kg iv
  time to reversal of hypotension by L-NMA: ≤ 1.5 min
[4]; endotoxin-treated dogs, L-NMA 20 mg/kg, p<0.01
  increase in SAP: 47.8 ± 6.8 mm Hg
[4]; two of the four control dogs, L-NMA
  decrease in cardiac output (Δ): ≥ 1.5 L/min
